{
  "source": "patent US5008252A",
  "about": "“Process for inhibiting herpes simplex virus-specified thymidine kinase” (The University of North Carolina at Chapel Hill, priority 1987, dated 1991)",
  "key": {"[1]": {"target": "HSV-1 B3 dThd kinase in infected HeLa BU cells (Human alphaherpesvirus 1 strain SC16, UniProt P06479)", "assay": "Intracellular dThd kinase activity ([14C]dThd phosphorylation)", "assay_type": "cell-based, HSV-1 (strain B3)", "settings": "intracellular [14C]dThd phosphorylation", "method": "(§1) Intracellular dThd kinase activity. HeLa S3 or HeLa BU cells (1.5×10^6 /ml) were mock infected or infected with HSV-1 or HSV-2at 3 PFU/cell and incubated at 37° C. for a 1 h adsorption period. The medium was then removed, and the cells were washed with growth medium and resuspended at a cell density of 5×10^5 cells/ml in RPMI 1640 medium supplemented with kanamycin (100 μg/ml) and 5% dialyzed fetal bovine serum. At 9 h post-HSV infection, [14C]dThd (0.16 μCi/ml; 1 μM dThd) and different amounts of 5'-Et-dThd were added to the medium depending on experimental conditions. At the end of the labeling period (1 h), the cells were pelleted by centrifugation, washed with phosphate-buffered-saline (PBS) and resuspended in a small volume of PBS. Aliquots were then pipetted directly onto DE81 discs which were immediately washed in 100% EtOH. The DE81 discs were washed two additional times in 100% EtOH, and then radioactivity associated with the discs was measured by scintillation counting in 5 ml of aqueous counting fluid. In this manner, total intracellular dThd kinase activity was determined from the sum of radioactive acid soluble dThd nucleotides plus the acid insoluble dTMP associated with DNA, both precipitated directly on the DE81 discs."}, "[2]": {"target": "HSV-1 (strain KOS) dThd kinase-associated dTMP kinase (Human alphaherpesvirus 1 strain KOS, UniProt P17402)", "assay": "dTMP (thymidylate) kinase assay, crude extracts", "assay_type": "biochemical", "settings": "HSV-1 KOS", "method": "The thymidylate kinase and synthase assays were performed according to known procedures (see, Cheng, Y.-C. & Prusoff, W. H. (1974) Anal. Biochem. 60:545-550; Roberts, D. (1966) Biochemistry 5:3546-3548; Dolnick, B. J. & Cheng, Y. C. (1977) J. Biol. Chem. 252:7697-7703). dThd phosphorylase activity was determined by monitoring conversion of [^14 C]dThd to [14 C] thymine using high performance liquid chromatography (HPLC). Briefly, after a 30 min incubation of enzyme extract with radiolabeled dThd at 37° C., the reaction was stopped by addition of 25% trichloroacetic acid. After neutralization and centrifugation, the supernatants were loaded on to an Alltech Lichrosorb RP-18 column, and the column was eluted at a rate of 1 ml/min with 5 mM KH2 PO4 (pH 3.5)--10% methanol. Fractions of 1 ml were collected and radioactivity associated with dThd and thymine (as previously determined by retention times of authentic markers measured by their absorbance at 265 nm) was measured by scintillation counting. For evaluation of whether 5'-Et-dThd could serve substrate for dThd phosphorylase, reactions were carried out as described as above, except that 5'-Et-dThd was used instead of [^14 C]dThd; metabolites were then analyzed by HPLC as described above."}, "[3]": {"target": "T1, human cytosolic dThd kinase (Homo sapiens, UniProt P04183)", "T1 construct": "cellular cytosolic dThd kinase used to determine the Ki values was isolated from KB6B cells; endogenous in cells; host or cells: KB6B cells", "T1 sequence (P04183 whole entry)": "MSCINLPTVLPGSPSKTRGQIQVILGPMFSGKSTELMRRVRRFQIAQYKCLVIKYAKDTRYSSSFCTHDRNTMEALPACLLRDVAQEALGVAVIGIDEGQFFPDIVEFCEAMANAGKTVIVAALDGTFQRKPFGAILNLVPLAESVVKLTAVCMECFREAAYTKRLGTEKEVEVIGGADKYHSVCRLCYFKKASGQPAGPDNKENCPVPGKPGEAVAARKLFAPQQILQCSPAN", "assay": "dThd kinase assay in vitro", "assay_type": "biochemical", "settings": "purified enzyme; concentrations as high as 150 μM; 100 μM [14C]dThd", "excerpt": "Enzyme purification, enzyme assays, IC50 and Ki determinations. The cellular cytosolic dThd kinase used to determine the Ki values was isolated from KB6B cells. The HSV-1 and HSV-2dThd kinases were extracted from dThd kinase-deficient HeLa BU cells infected with HSV-1 (strain KOS) and HSV-2(strain 333), respectively. All of the dThd kinases were purified using affinity column chromatography procedures described by Lee, L. S. and Cheng, Y.-C. (J. Biol. Chem. 251:2600-2604 (1976)). The dThd kinase assay used was the same as that described by Cheng, Y.-C. & Ostrander, M. (J. Biol. Chem. 251:2605-2610 (1976)). Incubations were conducted at 37° C. for 60 min and the Ki and 50% […] concentration (IC50) values were determined as described by Cheng, Y.-C. and Prusoff, W. H. (Biochem. Pharmacol. 22:3099-3108 (1976))."}, "[4]": {"target": "HSV-1 SC16 dThd kinase in infected HeLa BU cells (Human herpesvirus 1, UniProt P06479)", "assay": "Intracellular dThd kinase activity ([14C]dThd phosphorylation)", "assay_type": "cell-based, HSV-1 (strain SC16)", "settings": "intracellular [14C]dThd phosphorylation", "method": "as §1"}, "[5]": {"tested_on": "HSV-1 (strain KOS)-infected HeLa BU cells", "assay": "Virus yield assay", "assay_type": "cell-based", "method": "Cell and virus growth inhibition. Cell growth inhibition and the virus yield assay were performed in accordance with the protocol described by Cheng, Y.-C., Grill, S.P., Ruth, J. and Bergstrom, D. E. (Antimicrob. Agents Chemother. 18:957-961 (1980)) with the exceptions that all studies were done using 5% dialyzed fetal bovine serum; the multiplicity of infection was 3 PFU/cell and Vero cells were used instead of CV-1 cells for titration in the virus yield assays."}, "[6]": {"tested_on": "dTTP pools of HSV-1 (strain MDK)-infected HeLa BU cells", "assay": "dNTP pool assay", "assay_type": "cell-based", "settings": "100 μM", "excerpt": "(§2) dNTP pool assay. dNTP pool measurements were done as described by Williams, M. W., Chang, C. H. and Cheng, Y.-C. (J. Biomed. Biophys. Meth. 1:153-1 62 (1979)). 5'-Et-dThd alone had no effect on the dNTP pool assay."}, "[7]": {"tested_on": "dNTP pools of HSV-1-infected HeLa BU cells", "assay": "dNTP pool assay", "assay_type": "cell-based", "excerpt": "as §2"}, "[8]": {"tested_on": "dTTP pool of HSV-1-infected HeLa S3 cells", "assay": "dNTP pool assay", "assay_type": "cell-based", "settings": "100 μM, 12 h post infection", "excerpt": "as §2"}},
  "note": "Where “and” joins values, the source holds several entries; their conditions need not be identical. Identical values can stand only once. Entries after “also recorded” stand apart in the source; their conditions may differ.",
  "data": [
    {"substance": "5'-ethynylthymidine [5'-Et-dThd]", "values": [
      {"measurement": "IC50", "setting": "[1]", "value": "< 10 µM and 6 µM"},
      {"measurement": "IC50 of virus-associated dTMP kinase", "setting": "[2]; 25 μM dTMP substrate", "value": 0.3, "unit": "µM"},
      {"measurement": "IC50 of virus-associated dTMP kinase", "setting": "[2]; 100 μM dTMP substrate", "value": 0.8, "unit": "µM"},
      {"measurement": "effect on human cytosolic dThd kinase", "setting": "[3]", "value": "does not exhibit inhibitory activity; also recorded: no effect; also recorded: No demonstrable effects"},
      {"measurement": "IC50", "setting": "[4]", "value": 5, "unit": "µM"},
      {"measurement": "effect on the antiviral effect of aphidicolin", "setting": "[5]; 0.2 μM aphidicolin with varying concentrations of 5'-Et-dThd", "value": "significantly enhanced"},
      {"measurement": "effect on virus yield", "setting": "[5]; 5'-Et-dThd by itself", "value": "no effect"},
      {"measurement": "% PFU with a 5'-Et-dThd conc. of 2.5 μM", "setting": "[5]; Table II, drug (μM as in row; None = 5'-Et-dThd alone) plus 2.5 μM 5'-Et-dThd", "value": 97, "unit": "%"},
      {"measurement": "% PFU with a 5'-Et-dThd conc. of 25 μM", "setting": "[5]; Table II, drug (μM as in row; None = 5'-Et-dThd alone) plus 25 μM 5'-Et-dThd", "value": 96, "unit": "%"},
      {"measurement": "% PFU with a 5'-Et-dThd conc. of 100 μM", "setting": "[5]; Table II, drug (μM as in row; None = 5'-Et-dThd alone) plus 100 μM 5'-Et-dThd", "value": 99, "unit": "%"},
      {"measurement": "%PFU with a 5'-Et-dThd conc. of 5 μM", "setting": "[5]; Table III, aphidicolin 0.2 μM (None = 5'-Et-dThd alone) plus 5 μM 5'-Et-dThd", "value": 100, "unit": "%"},
      {"measurement": "%PFU with a 5'-Et-dThd conc. of 20 μM", "setting": "[5]; Table III, aphidicolin 0.2 μM (None = 5'-Et-dThd alone) plus 20 μM 5'-Et-dThd", "value": 100, "unit": "%"},
      {"measurement": "% PFU with a 5'-Et-dThd conc. of 100 μM", "setting": "[5]; Table III, aphidicolin 0.2 μM (None = 5'-Et-dThd alone) plus 100 μM 5'-Et-dThd", "value": 100, "unit": "%"},
      {"measurement": "inhibition of dTTP pools", "setting": "[6]", "value": 45, "unit": "%"},
      {"measurement": "effect on dTTP pool of HSV-infected mammalian cells", "setting": "[7]; 100 μM", "value": "significantly decreases"},
      {"measurement": "reduction of dTTP pool vs untreated infected control", "setting": "[7]; 100 μM, HSV-1-infected HeLa BU cells, 12 h post infection", "value": 95, "unit": "%"},
      {"measurement": "effect on dATP, dCTP and dGTP pools", "setting": "[7]; 9 h HSV-1 (KOS)-infected HeLa BU cells", "value": "not significantly affected; also recorded: no significant effect"},
      {"measurement": "reduction of dTTP pool vs untreated infected control", "setting": "[8]", "value": 80, "unit": "%"}
    ]}
  ]
}
